{"source": "ChEMBL document CHEMBL6153089", "about": "“Design, Synthesis, and Biological Evaluation of Thieno[3,2-d]pyrimidine Derivatives as the First Bifunctional PI3Kδ Isoform Selective/Bromodomain and Extra-Terminal Inhibitors” (J Med Chem, 2025)", "key": {"[1]": {"molecular_target": "T1, Bromodomain-containing protein 4 (Homo sapiens, UniProt O60885)", "test": "Inhibition of His-tagged BRD4-BD1 (unknown origin) at 10 nM incubated for 30 mins by Alphascreen assay relative to control"}, "[2]": {"molecular_target": "T1, Bromodomain-containing protein 4", "test": "Inhibition of His-tagged BRD4-BD1 (unknown origin) incubated for 30 mins in presence of ATP by Alphascreen assay"}, "SU-DHL-6 [3]": {"system": "SU-DHL-6", "test": "Antiproliferative against activity human SU-DHL-6 cells assessed as inhibition of cell growth incubated for 72 hrs by Celltiter-luminescence analysis", "assay_type": "functional, cell-based", "conditions": "SU-DHL-6, 72 h"}, "[4]": {"molecular_target": "Phosphatidylinositol 4,5-bisphosphate 3-kinase catalytic subunit beta isoform (Homo sapiens, UniProt P42338)", "sequence (P42338 whole entry, canonical isoform)": "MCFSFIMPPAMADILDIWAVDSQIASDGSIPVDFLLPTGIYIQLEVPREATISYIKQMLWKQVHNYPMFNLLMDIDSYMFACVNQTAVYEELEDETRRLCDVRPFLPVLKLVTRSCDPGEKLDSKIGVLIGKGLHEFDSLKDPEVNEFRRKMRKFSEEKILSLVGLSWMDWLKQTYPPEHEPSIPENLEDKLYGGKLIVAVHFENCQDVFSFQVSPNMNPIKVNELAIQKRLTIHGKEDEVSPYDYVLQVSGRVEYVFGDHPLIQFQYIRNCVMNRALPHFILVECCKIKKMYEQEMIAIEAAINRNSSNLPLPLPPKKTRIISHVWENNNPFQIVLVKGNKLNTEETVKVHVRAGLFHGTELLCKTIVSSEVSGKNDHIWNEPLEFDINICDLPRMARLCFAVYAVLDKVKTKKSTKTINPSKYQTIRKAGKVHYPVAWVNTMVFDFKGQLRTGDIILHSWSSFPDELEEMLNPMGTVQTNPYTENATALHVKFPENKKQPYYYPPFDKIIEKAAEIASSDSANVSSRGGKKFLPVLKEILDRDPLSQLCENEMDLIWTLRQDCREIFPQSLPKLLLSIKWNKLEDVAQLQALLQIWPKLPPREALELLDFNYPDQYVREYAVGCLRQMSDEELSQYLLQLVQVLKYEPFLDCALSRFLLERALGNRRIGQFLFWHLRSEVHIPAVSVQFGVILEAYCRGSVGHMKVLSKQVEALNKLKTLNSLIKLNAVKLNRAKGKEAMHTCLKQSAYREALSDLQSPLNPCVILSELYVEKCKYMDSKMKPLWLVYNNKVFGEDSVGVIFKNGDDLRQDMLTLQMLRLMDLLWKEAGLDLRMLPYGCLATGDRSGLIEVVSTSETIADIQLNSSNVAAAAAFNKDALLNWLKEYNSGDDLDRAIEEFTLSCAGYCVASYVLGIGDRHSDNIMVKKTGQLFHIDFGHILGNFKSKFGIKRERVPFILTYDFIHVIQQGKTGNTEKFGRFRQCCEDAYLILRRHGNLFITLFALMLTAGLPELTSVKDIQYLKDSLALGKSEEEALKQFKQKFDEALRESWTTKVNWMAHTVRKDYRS", "test": "Inhibition of PI3Kbeta (unknown origin) incubated for 2 hrs in presence of ATP by ADP-kinaseGlo reagent based assay"}, "[5]": {"molecular_target": "Bromodomain-containing protein 2 (Homo sapiens, UniProt P25440)", "sequence (P25440 whole entry)": "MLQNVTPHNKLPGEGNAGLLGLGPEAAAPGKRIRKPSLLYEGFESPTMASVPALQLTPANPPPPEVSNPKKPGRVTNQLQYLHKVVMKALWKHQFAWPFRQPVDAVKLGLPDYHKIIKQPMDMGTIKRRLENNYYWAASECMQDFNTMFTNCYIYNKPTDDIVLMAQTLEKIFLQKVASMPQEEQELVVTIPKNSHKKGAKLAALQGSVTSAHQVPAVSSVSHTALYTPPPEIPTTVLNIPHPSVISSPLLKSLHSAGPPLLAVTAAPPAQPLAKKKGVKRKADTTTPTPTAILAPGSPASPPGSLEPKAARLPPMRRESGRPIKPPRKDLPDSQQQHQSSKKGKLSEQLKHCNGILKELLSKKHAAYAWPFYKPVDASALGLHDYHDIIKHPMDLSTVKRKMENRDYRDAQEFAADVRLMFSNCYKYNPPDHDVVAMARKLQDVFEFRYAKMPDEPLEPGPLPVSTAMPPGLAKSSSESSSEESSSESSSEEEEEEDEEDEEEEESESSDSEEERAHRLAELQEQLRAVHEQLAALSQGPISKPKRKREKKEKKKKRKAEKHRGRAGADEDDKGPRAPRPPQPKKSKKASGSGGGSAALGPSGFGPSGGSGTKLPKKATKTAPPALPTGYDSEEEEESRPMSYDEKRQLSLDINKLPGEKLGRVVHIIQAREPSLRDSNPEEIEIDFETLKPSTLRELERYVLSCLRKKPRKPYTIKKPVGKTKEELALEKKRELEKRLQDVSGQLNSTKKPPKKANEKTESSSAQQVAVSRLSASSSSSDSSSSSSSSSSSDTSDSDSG", "test": "Inhibition of His-tagged BRD2-BD1 (unknown origin) incubated for 30 mins in presence of ATP by Alphascreen assay"}, "Homo sapiens": {"species": "Homo sapiens", "test": "Inhibition of human p110alpha/p65alpha at 1 uM relative to control"}, "[6]": {"molecular_target": "PI3-kinase p110-delta/p85-alpha (Homo sapiens) (UniProt P27986+O00329)", "test": "Inhibition of human p110delta/p85alpha at 1 uM relative to control", "assay_type": "protein-complex assay"}, "[7]": {"molecular_target": "Phosphatidylinositol 3-kinase C2 domain-containing subunit gamma (Homo sapiens) (UniProt O75747)", "sequence (O75747 whole entry, the tested form may be a part)": "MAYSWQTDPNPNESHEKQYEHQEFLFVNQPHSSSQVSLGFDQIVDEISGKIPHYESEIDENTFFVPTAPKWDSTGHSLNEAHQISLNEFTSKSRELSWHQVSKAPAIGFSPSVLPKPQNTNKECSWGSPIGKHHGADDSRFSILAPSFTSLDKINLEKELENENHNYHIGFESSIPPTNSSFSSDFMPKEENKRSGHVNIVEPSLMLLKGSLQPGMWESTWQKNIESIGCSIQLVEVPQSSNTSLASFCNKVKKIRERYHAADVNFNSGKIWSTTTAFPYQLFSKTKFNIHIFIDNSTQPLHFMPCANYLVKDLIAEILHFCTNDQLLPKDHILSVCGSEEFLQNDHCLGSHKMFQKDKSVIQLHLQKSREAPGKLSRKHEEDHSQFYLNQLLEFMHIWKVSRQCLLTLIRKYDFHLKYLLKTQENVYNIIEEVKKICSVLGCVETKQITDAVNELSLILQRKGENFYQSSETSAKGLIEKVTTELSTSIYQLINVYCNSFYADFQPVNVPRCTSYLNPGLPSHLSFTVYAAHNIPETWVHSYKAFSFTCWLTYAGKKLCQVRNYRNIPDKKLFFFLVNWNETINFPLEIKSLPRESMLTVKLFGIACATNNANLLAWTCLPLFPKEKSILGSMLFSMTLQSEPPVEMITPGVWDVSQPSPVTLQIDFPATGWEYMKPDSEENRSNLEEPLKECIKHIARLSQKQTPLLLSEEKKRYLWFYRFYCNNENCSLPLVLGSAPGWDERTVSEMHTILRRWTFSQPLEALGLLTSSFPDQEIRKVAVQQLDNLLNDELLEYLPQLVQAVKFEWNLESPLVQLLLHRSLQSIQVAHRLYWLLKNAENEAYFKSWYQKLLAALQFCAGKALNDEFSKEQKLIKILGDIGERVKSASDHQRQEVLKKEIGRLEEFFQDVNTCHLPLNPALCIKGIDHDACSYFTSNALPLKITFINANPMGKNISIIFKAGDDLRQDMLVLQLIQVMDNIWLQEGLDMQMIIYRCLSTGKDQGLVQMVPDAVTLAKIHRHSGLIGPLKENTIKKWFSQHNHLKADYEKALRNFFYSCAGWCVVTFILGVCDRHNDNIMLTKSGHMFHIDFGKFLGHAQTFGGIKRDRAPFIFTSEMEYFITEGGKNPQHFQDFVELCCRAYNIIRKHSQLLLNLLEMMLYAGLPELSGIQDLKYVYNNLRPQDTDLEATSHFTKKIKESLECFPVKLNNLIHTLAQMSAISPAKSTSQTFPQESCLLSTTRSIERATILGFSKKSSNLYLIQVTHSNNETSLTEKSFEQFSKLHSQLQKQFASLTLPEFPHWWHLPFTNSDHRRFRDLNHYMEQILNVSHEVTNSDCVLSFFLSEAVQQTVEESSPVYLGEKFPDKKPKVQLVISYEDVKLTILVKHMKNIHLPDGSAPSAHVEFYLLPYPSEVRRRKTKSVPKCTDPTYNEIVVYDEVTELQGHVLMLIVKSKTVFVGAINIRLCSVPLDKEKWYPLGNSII", "test": "Inhibition of human PI3KC2gamma at 1 uM relative to control"}, "[8]": {"molecular_target": "Phosphatidylinositol 5-phosphate 4-kinase type-2 alpha (Homo sapiens) (UniProt P48426)", "sequence (P48426 whole entry)": "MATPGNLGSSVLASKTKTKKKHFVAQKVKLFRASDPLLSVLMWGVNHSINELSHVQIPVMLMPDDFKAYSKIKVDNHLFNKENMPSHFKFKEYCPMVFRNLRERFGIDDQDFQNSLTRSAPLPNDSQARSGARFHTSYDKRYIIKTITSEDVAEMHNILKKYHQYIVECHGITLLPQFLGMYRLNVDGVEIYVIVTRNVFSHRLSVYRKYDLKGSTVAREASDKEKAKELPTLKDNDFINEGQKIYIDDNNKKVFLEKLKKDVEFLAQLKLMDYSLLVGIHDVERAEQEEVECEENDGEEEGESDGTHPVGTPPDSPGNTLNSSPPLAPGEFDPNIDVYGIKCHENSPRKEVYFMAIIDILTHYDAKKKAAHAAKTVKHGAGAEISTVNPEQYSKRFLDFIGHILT", "test": "Inhibition of human PIP4K2alpha at 1 uM relative to control"}, "SUD4 [9]": {"system": "SUD4", "test": "Antiproliferative activity against human SU-DHL-4 cells assessed as inhibition of cell proliferation by measuring reduction in cell count incubated for 6 days by photographic analysis", "assay_type": "functional, cell-based", "conditions": "dose 25-100 nM, time 6.0 day"}, "WI-38": {"system": "WI-38", "test": "Cytotoxicity against human WI-38 cells assessed as effect on cell proliferation at 5 to 20 uM incubated for 72 hrs by Celltiter-luminescence analysis", "assay_type": "toxicity, cell-based", "conditions": "wi-38, 72 h, dose 5-20 µM"}, "SUD4 [10]": {"system": "SUD4", "test": "Induction of apoptosis in human SU-DHL-4 cells assessed as early apoptotic cells at 0.25 uM incubated for 24 hrs by Annexin V-FITC/PI staining based flow cytometric analysis (reference value: 25.3 %)", "assay_type": "functional"}, "SUD4 [11]": {"system": "SUD4", "test": "Induction of apoptosis in human SU-DHL-4 cells assessed as late apoptotic cells at 0.25 uM incubated for 24 hrs by Annexin V-FITC/PI staining based flow cytometric analysis (reference value: 6.74 %)", "assay_type": "functional"}, "SUD4 [12]": {"system": "SUD4", "test": "Induction of apoptosis in human SU-DHL-4 cells assessed as viable cells at 0.5 uM incubated for 24 hrs by Annexin V-FITC/PI staining based flow cytometric analysis (reference value: 65.2 %)", "assay_type": "functional", "conditions": "read-out: Activity"}, "SUD4 [13]": {"system": "SUD4", "test": "Induction of apoptosis in human SU-DHL-4 cells assessed as viable cells at 1 uM incubated for 24 hrs by Annexin V-FITC/PI staining based flow cytometric analysis (reference value: 65.2 %)", "assay_type": "functional", "conditions": "read-out: Activity"}, "SUD4 [14]": {"system": "SUD4", "test": "Induction of apoptosis in human SU-DHL-4 cells assessed as early apoptotic cells at 1 uM incubated for 24 hrs by Annexin V-FITC/PI staining based flow cytometric analysis (reference value: 25.3 %)", "assay_type": "functional"}, "SUD4 [15]": {"system": "SUD4", "test": "Induction of apoptosis in human SU-DHL-4 cells assessed as necrotic cells at 1 uM incubated for 24 hrs by Annexin V-FITC/PI staining based flow cytometric analysis (reference value: 0.642 %)", "assay_type": "functional"}, "SU-DHL-6 [16]": {"system": "SU-DHL-6", "test": "Induction of apoptosis in human SU-DHL-6 cells assessed as late apoptotic cells at 0.25 uM incubated for 24 hrs by Annexin V-FITC/PI staining based flow cytometric analysis (reference value: 6.43 %)", "assay_type": "functional"}, "SU-DHL-6 [17]": {"system": "SU-DHL-6", "test": "Induction of apoptosis in human SU-DHL-6 cells assessed as necrotic cells at 0.25 uM incubated for 24 hrs by Annexin V-FITC/PI staining based flow cytometric analysis (reference value: 0.246 %)", "assay_type": "functional"}, "SU-DHL-6 [18]": {"system": "SU-DHL-6", "test": "Induction of apoptosis in human SU-DHL-6 cells assessed as early apoptotic cells at 0.5 uM incubated for 24 hrs by Annexin V-FITC/PI staining based flow cytometric analysis (reference value: 32.1 %)", "assay_type": "functional"}, "SU-DHL-6 [19]": {"system": "SU-DHL-6", "test": "Induction of apoptosis in human SU-DHL-6 cells assessed as viable cells at 1 uM incubated for 24 hrs by Annexin V-FITC/PI staining based flow cytometric analysis (reference value: 61.2 %)", "assay_type": "functional", "conditions": "read-out: Activity"}, "SU-DHL-6 [20]": {"system": "SU-DHL-6", "test": "Induction of apoptosis in human SU-DHL-6 cells assessed as late apoptotic cells at 1 uM incubated for 24 hrs by Annexin V-FITC/PI staining based flow cytometric analysis (reference value: 6.43 %)", "assay_type": "functional"}, "SU-DHL-4": {"system": "SU-DHL-4", "test": "Inhibition of AKT phosphorylation in human SU-DHL-4 cells at 0.25 to 1 uM incubated for 12 hrs by Western blot analysis", "assay_type": "cell-based", "conditions": "dose 0.25-1 µM"}, "[21]": {"molecular_target": "Glycogen synthase kinase-3 beta (Homo sapiens) (UniProt P49841)", "sequence (P49841 whole entry, looked up)": "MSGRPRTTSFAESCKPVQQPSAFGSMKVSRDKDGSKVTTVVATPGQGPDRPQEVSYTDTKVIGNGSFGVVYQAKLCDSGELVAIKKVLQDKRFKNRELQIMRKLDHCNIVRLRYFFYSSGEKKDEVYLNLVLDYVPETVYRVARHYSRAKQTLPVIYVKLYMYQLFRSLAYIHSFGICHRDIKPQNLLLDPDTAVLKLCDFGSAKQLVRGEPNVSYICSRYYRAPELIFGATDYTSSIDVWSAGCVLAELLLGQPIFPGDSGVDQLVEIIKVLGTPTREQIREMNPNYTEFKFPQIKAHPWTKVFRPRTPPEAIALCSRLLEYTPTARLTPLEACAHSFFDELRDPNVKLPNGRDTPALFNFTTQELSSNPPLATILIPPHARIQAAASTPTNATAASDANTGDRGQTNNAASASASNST", "test": "Inhibition of GSK-3beta phosphorylation in human SU-DHL-4 cells at 0.25 to 1 uM incubated for 12 hrs by Western blot analysis", "assay_type": "cell-based", "conditions": "dose 0.25-1 µM"}, "SU-DHL-6 [22]": {"system": "SU-DHL-6", "test": "Inhibition of AKT phosphorylation in human SU-DHL-6 cells incubated for 12 hrs by Western blot analysis", "assay_type": "cell-based", "conditions": "dose 0.25-1 µM"}, "SUD4 [23]": {"system": "SUD4", "test": "Downregulation of c-Myc expression in human SU-DHL-4 cells at 0.25 to 1 uM incubated for 12 hrs by Western blot analysis", "assay_type": "functional, cell-based", "conditions": "dose 0.25-1 µM"}, "SU-DHL-6 [24]": {"system": "SU-DHL-6", "test": "Downregulation of c-Myc expression in human SU-DHL-6 cells at 0.25 to 1 uM incubated for 12 hrs by Western blot analysis", "assay_type": "functional, cell-based", "conditions": "dose 0.25-1 µM"}, "SU-DHL-6 [25]": {"system": "SU-DHL-6", "test": "Induction of apoptosis in human SU-DHL-6 cells assessed as decrease in Bcl-2 protein expression at 0.25 to 1 uM incubated for 12 hrs by Western blot analysis", "assay_type": "functional, cell-based", "conditions": "dose 0.25-1 µM"}, "[26]": {"test": "Clearance in female BALB/c mouse at 1 mg/kg, iv measured after 12 hrs by LC-MS/MS analysis", "assay_type": "ADME, organism-based", "conditions": "in vivo"}, "[27]": {"test": "AUC (0 to t) in female BALB/c mouse at 20 mg/kg, po measured after 24 hrs by LC-MS/MS analysis", "assay_type": "ADME, organism-based", "conditions": "in vivo"}, "SU-DHL-6 [28]": {"system": "SU-DHL-6", "test": "Antitumor activity against human SU-DHL-6 cells xenografted in female BALB/c mouse model assessed as tumor growth inhibition at 20 mg/kg, po administered once daily via gavage for 15 days relative to control", "assay_type": "functional", "conditions": "SU-DHL-6, 360 h, time 15 day, read-out: TGI"}, "[29]": {"test": "Toxicity in female BALB/c mouse model xenografted with human SU-DHL-6 cells assessed as effect on lung histopathology at 20 mg/kg, po administered once daily via gavage for 15 days by H and E staining based analysis", "assay_type": "organism-based", "conditions": "in vivo, 360 h, time 15 day"}, "[30]": {"test": "Toxicity in female BALB/c mouse model xenografted with human SU-DHL-6 cells assessed as effect on kidney histopathology at 20 mg/kg, po administered once daily via gavage for 15 days by H and E staining based analysis", "assay_type": "organism-based", "conditions": "in vivo, 360 h, time 15 day"}, "SU-DHL-6 [31]": {"system": "SU-DHL-6", "test": "Antitumor activity against human SU-DHL-6 cells xenografted in female BALB/c mouse model assessed as reduction in c-Myc level in tumor at 20 mg/kg, po administered once daily via gavage for 15 days by Western blot analysis", "assay_type": "functional, organism-based", "conditions": "time 15.0 day"}}, "note": "Calls of active or inactive are those of the source. The rule behind the calls is not given here."}
{"molecule": "Cn1cc(-c2nc(N3CCOCC3)c3sc(CN4CCC(C(C)(C)O)CC4)cc3n2)c2cc[nH]c2c1=O", "values": [{"measurement": "inhibition", "setting": "[1]", "value": 33.7, "unit": "%"}, {"measurement": "IC50", "setting": "[2]", "value": 19, "unit": "nM"}, {"measurement": "IC50", "setting": "SU-DHL-6 [3]", "value": 61, "unit": "nM"}, {"measurement": "IC50", "setting": "[4]", "value": 4750, "unit": "nM"}, {"measurement": "IC50", "setting": "[5]", "value": 18, "unit": "nM"}, {"measurement": "inhibition", "setting": "Homo sapiens", "value": 41.9, "unit": "%"}, {"measurement": "inhibition", "setting": "[6]", "value": 94.1, "unit": "%"}, {"measurement": "inhibition", "setting": "[7]", "value": 15.6, "unit": "%"}, {"measurement": "inhibition", "setting": "[8]", "value": 0.3, "unit": "%"}, {"measurement": "Activity", "setting": "SUD4 [9]", "value": "Dose-dependent-effect; Stronger Effect Observed At Lower Concentration Than Those Of Sf2523"}, {"measurement": "Activity", "setting": "WI-38", "value": "Non-toxic"}, {"measurement": "Activity", "setting": "SUD4 [10]", "value": 32.4, "unit": "%"}, {"measurement": "Activity", "setting": "SUD4 [11]", "value": 12.6, "unit": "%"}, {"measurement": "viability at 0.5 µM", "setting": "SUD4 [12]", "value": 49.1, "unit": "%"}, {"measurement": "viability at 1 µM", "setting": "SUD4 [13]", "value": 28.1, "unit": "%"}, {"measurement": "Activity", "setting": "SUD4 [14]", "value": 45.3, "unit": "%"}, {"measurement": "Activity", "setting": "SUD4 [15]", "value": 0.505, "unit": "%"}, {"measurement": "Activity", "setting": "SU-DHL-6 [16]", "value": 6.32, "unit": "%"}, {"measurement": "Activity", "setting": "SU-DHL-6 [17]", "value": 0.481, "unit": "%"}, {"measurement": "Activity", "setting": "SU-DHL-6 [18]", "value": 41.8, "unit": "%"}, {"measurement": "viability at 1 µM", "setting": "SU-DHL-6 [19]", "value": 41.8, "unit": "%"}, {"measurement": "Activity", "setting": "SU-DHL-6 [20]", "value": 8.72, "unit": "%"}, {"measurement": "inhibition", "setting": "SU-DHL-4", "value": "Active"}, {"measurement": "inhibition", "setting": "[21]", "value": "Active"}, {"measurement": "inhibition", "setting": "SU-DHL-6 [22]", "value": "Dose-dependent-effect"}, {"measurement": "Activity", "setting": "SUD4 [23]", "value": "Active"}, {"measurement": "Activity", "setting": "SU-DHL-6 [24]", "value": "Active"}, {"measurement": "Activity", "setting": "SU-DHL-6 [25]", "value": "Active; Modest Effect Observed"}, {"measurement": "clearance", "setting": "[26]", "value": 112, "unit": "mL/min/kg"}, {"measurement": "AUC(0-t) at 24 h", "setting": "[27]", "value": 2190, "unit": "ng·h/mL"}, {"measurement": "inhibition in vivo at 20 mg/kg", "setting": "SU-DHL-6 [28]", "value": 70.8, "unit": "%"}, {"measurement": "Activity", "setting": "[29]", "value": "Non-toxic"}, {"measurement": "Activity", "setting": "[30]", "value": "Non-toxic"}, {"measurement": "Activity", "setting": "SU-DHL-6 [31]", "value": "Active"}]}
